Test results as given in patent publication US5147888A, “N-terminal indolyy indolylalkylaminodiol β-amino acid derivatives” (G. D. Searle & Co., priority 1991, dated 1992).
Square brackets hold non-standard residues; d marks the D form. Peptide text beside a SMILES is read from it. * marks the point of attachment. Sta = CC(C)C[C@H](N)[C@@H](O)CC(=O)O; Isovaleryl = CC(C)CC(=O)*

How the values were obtained:
human renin = molecular target: T1, human renin (Homo sapiens, UniProt P00797); test: in vitro human renin inhibition assay (angiotensin I determined by radioimmunoassay); type: biochemical; conditions: pH 7.4, 37° C., two hours; for inhibition at 1 µM: 10^-6 M
T1 construct: purchased National Institute for Biological Standards, London
T1 sequence (P00797 67-406): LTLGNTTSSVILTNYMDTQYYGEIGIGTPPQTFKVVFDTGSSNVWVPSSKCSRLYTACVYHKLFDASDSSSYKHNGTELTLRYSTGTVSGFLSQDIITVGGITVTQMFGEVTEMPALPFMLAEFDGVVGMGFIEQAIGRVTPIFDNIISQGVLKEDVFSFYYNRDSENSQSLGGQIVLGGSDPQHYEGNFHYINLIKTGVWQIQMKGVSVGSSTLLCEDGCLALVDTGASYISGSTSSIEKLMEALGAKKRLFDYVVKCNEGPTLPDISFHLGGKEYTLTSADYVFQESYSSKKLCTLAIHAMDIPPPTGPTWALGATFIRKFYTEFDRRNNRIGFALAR
Description: Compounds of Formula I were evaluated as inhibitors of human renin in an in vitro assay. This human renin inhibition test has been previously described in detail [Papaioannou et al., Clinical and Experimental Hypertension, A7(9), 1243-1257 (1985)]. Human renin was obtained from the National Institute for Biologivcal Standards, London. An incubation mixture was prepared containing in a total volume of 0.25 mL 100 mM Tris-acetate buffer at pH 7.4, 25×10^-6 Goldblatt units of renin, 0.05 mL of plasma from human volunteers taking oral contraceptives,6.0 mM sodium EDTA, 2.4 mM phenylmethyl sulfonyl fluoride, 1.5 mM 8-hydroxyquinoline, 0.4 mg/mL BSA, and 0.024 mg/mL neomycin sulfate. This mixture was incubated for two hours at 37° C. in the presence or absence of renin inhibitors. The produced angiotensin I was determined by radioimmunoassay (New England Nuclear kit). Test compounds to be assayed were dissolved in DMSO and diluted with 100 mM Tris-acetate buffer at pH 7.4 containing 0.5% BSA to the appropriate Concentration. The final concentration of organic solvent in the reaction mixture was less than 1%. Control incubations at 37° C. were used to correct for effects of organic solvent on renin activity.

cathepsin D = conditions: cited from earlier work
renin = conditions: cited from earlier work
hog renin = conditions: after the injection of hog renin into nephrectomized rats; cited from earlier work
pepsin = conditions: cited from earlier work

Row | SMILES | IC50 (human renin) | other results
1 | CC(C)C[C@H](O)[C@H](O)[C@H](CC1CCCCC1)NC(=O)[C@H](C)CNC(=O)Cc1c[nH]c2ccccc12 [Example 21, N-[3-[[1S,1R*-(cyclohexylmethyl)-2S*,3R*-dihydroxy-5-methylhexyl]amino]-2S*-methyl-3-oxopropyl]-1H-indole3-acetamide] | – | inhibition at 1 µM (human renin): 30%
2 | CC(C)CC(=O)N[C@H](C(=O)N[C@H](C(=O)N[C@@H](CC(C)C)[C@@H](O)CC(=O)N[C@@H](C)C(=O)N[C@@H](CC(C)C)[C@@H](O)CC(=O)O)C(C)C)C(C)C [pepstatin] (Isovaleryl-VV[Sta]A[Sta]-OH) | – | inhibitor of aspartyl proteases: cathepsin D (cathepsin D): inhibitor; inhibitor of aspartyl proteases: renin (renin): inhibitor; blood pressure reduction in vivo (hog renin): reduce blood pressure; inhibitor of aspartyl proteases: pepsin (pepsin): inhibitor
3 | CC(C)C[C@H](O)[C@H](O)[C@H](CC1CCCCC1)NC(=O)[C@H](C)CN(C)C(=O)CCCC1CCCCC1 (relative stereo) [Example 12, N-[3-[[1S,1R*-(cyclohexylmethyl)-2S*,3R*-dihydroxy-5-methylhexyl]amino]-2S*-methyl-3-oxopropyl]-N-methyl-cyclohexanebutanamide] | – | inhibition at 1 µM (human renin): 23%
4 | CC(C)C[C@H](O)[C@H](O)[C@H](CC1CCCCC1)NC(=O)[C@H](C)CNC(=O)CCCc1ccccc1 (relative stereo) [Example 6, N-[3-[[1S,1R*-(cyclohexylmethyl)-2S*,3R*-dihydroxy-5-methylhexyl]amino]-2S*-methyl-3-oxopropyl]benzenebutanamide] | 125 nM | –
5 | CC(C)C[C@H](O)[C@H](O)[C@H](CC1CCCCC1)NC(=O)[C@H](C)CNC(=O)CCCC1CCCCC1 (relative stereo) [Example 11, N-[3-[[1S,1R*-(cyclohexylmethyl)-2S*,3R*-dihydroxy-5-methylhexyl]amino]-2S*-methyl-3-oxopropyl]cyclohexane-butanamide] | 180 nM | –
6 | CC(C)C[C@H](O)[C@H](O)[C@H](CC1CCCCC1)NC(=O)[C@H](C)CNC(=O)c1c[nH]c2ccccc12 [Example 20, N-[3-[[1S,1R*-(cyclohexylmethyl)-2S*,3R*-dihydroxy-5-methylhexyl]amino]-2S*-methyl-3-oxopropyl]-1H-indole3-carboxamide] | – | inhibition at 10 µM (human renin; 10^-5 M): 27%
7 | CC(C)C[C@H](O)[C@H](O)[C@H](CC1CCCCC1)NC(=O)[C@H](C)CNC(=O)c1cc2ccccc2[nH]1 (relative stereo) [Example 7, N-[3-[[1S,1R*-(cyclohexylmethyl)-2S*,3R*-dihydroxy-5-methylhexyl]amino]-2S*-methyl-3-oxopropyl]-1H-indole-2-carboxamide] | 26 nM | –
8 | COc1cccc2cc(C(=O)NC[C@@H](C)C(=O)N[C@@H](CC3CCCCC3)[C@@H](O)[C@@H](O)CC(C)C)oc12 [Example 24, N-[3-[[1S,1R*-(cyclohexylmethyl)-2S*,3R*-dihydroxy-5-methylhexyl]amino]-2S*-methyl-3-oxopropyl]-7-methoxy-benzofuran-2-carboxamide] | 3000 nM | –
9 | CC(C)C[C@H](O)[C@H](O)[C@H](CC1CCCCC1)NC(=O)[C@H](C)CN(C)C(=O)CCCc1ccccc1 (relative stereo) [Example 10, N-[3-[[1S,1R*-(cyclohexylmethyl)-2S*,3R*-dihydroxy-5-methylhexyl]amino-]-2S*-methyl-3-oxopropyl]-N-methyl-benzenebutanamide] | 115 nM | –
10 | COc1ccc(CCC(=O)NC[C@@H](C)C(=O)N[C@@H](CC2CCCCC2)[C@@H](O)[C@@H](O)CC(C)C)cc1 [Example 13, N-[3-[[1S,1R*-(cyclohexylmethyl)-2S*,3R*-dihydroxy-5-methylhexyl]amino]-2S*-methyl-3-oxopropyl]-4-methoxybenzenepropanamide] | – | inhibition at 0.5 µM (human renin; 5 × 10^-7 M): 30%

More lines, main results first:

Row | IC50 (human renin) | SMILES | other results
11 | 30 nM | CC(C)C[C@H](O)[C@H](O)[C@H](CC1CCCCC1)NC(=O)[C@H](C)CNC(=O)CCc1c[nH]c2ccccc12 [Example 22, N-[3-[[1S,1R*-(cyclohexylmethyl)-2S*,3R*-dihydroxy-5-methylhexyl]amino]-2S*-methyl-3-oxopropyl]-1H-indole3-propanamide] | –
12 | 520 nM | CC(C)C[C@H](O)[C@H](O)[C@H](CC1CCCCC1)NC(=O)[C@H](C)CNC(=O)c1cc(=O)c2ccccc2o1 [Example 26, N-[3-[[1S,1R*-(cyclohexylmethyl)-2S*,3R*-dihydroxy-5-methylhexyl]amino]-2S*-methyl-3-oxopropyl]-4-oxo-4H-1-benzopyran-2-carboxamide] | –
13 | 1800 nM | CC(C)C[C@H](O)[C@H](O)[C@H](CC1CCCCC1)NC(=O)[C@H](C)CNC(=O)c1cc2cccc(Cl)c2o1 [Example 23] | –
14 | 450 nM | CCn1cc(C(=O)NC[C@@H](C)C(=O)N[C@@H](CC2CCCCC2)[C@@H](O)[C@@H](O)CC(C)C)c(=O)c2ccc(C)nc21 [Example 16, N-[3-[[1S,1R*-(cyclohexylmethyl)-2S*,3R*-dihydroxy-5-methylhexylamino]amino]-2S*-methyl-3-oxopropyl-nalidixylamide] | –
15 | 1100 nM | CC(C)C[C@H](O)[C@H](O)[C@H](CC1CCCCC1)NC(=O)[C@H](C)CNC(=O)c1coc2ccccc2c1=O [Example 25, N-[3-[[1S,1R*-(cyclohexylmethyl)-2S*,3R*-dihydroxy-5-methyhexyl]amino]-2S*- methyl-3-oxopropyl]-4-oxo-4H-1-benzopyran-3-carboxamide] | –
